According to article PMC9304322, “Targeting retinoic acid receptor alpha-corepressor interaction activates chaperone-mediated autophagy and protects against retinal degeneration” (Nature Communications, 2022):
Values joined by “and” are separate entries in the source; they are usually repeats but may differ in a detail not shown here. Identical values can stand only once. Like-named read-outs stand apart in the source and are kept apart here.

Tests used:
[1] = Pharmacokinetic analysis, plasma and brain;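 on Fig. 3a level, MEAN: plasma concentration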;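 on Fig. 3a level, single animals 1-3: plasma concentration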;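 on Fig. 3b level, MEAN: brain concentration in ng/g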;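 on Fig. 3b level, single animals 1-3: brain concentration in ng/g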; assay type: in vivo, ICR (CD-1) male mice; parameters: Fig. 3a level, single animals 1-3 / Fig. 3a level, MEAN / Fig. 3b level, single animals 1-3 / Fig. 3b level, MEAN: unit not given here; settings: for Fig. 3b level, MEAN / Fig. 3b level, single animals 1-3 / Fig. 3a level, MEAN / Fig. 3a level, single animals 1-3: PO; for Kp at 0.083 h / Kp at 0.25 h / Kp at 0.5 h / Kp at 1 h / Kp at 2 h / Kp at 4 h / Kp at 8 h / half-life: male, ICR (CD-1), mouse; for half-life: mice
Procedure: ICR (CD-1) male mice were fasted at least three hours and water was available ad libitum before the study. Animals were housed in a controlled environment, target conditions: temperature 18 to 29 °C, relative humidity 30 to 70%. Temperature and relative humidity was monitored daily. An electronic time-controlled lighting system was used to provide a 12 h light/12 h dark cycle. 3 mice for each indicated time point were administered 30 mg/Kg CA39 or CA77 by oral gavage or 1 mg/Kg CA39 or CA77 by intravenous injection using 30% PEG-400, 65% D5W (5% dextrose in water), 5% Tween-80 vehicle. Mice were sacrificed, and brain samples were harvested at […], 0.25 h, 0.5 h, 1 h, 2 h, 4 h, 8 h, 24 h, and analyzed for CA39 or CA77 levels using LC-MS/MS. Pharmacokinetics parameters were calculated using Phoenix WinNonlin 6.3. Experiments performed at SIMM-SERVIER joint Biopharmacy Laboratory.

[2] = test system: NIH3T3 cells control (empty vector) or knock-down (KD) for N-CoR1; test: CMA activity in NIH3T3 control or knock-down for N-CoR1; assay type: cell-based, mouse; parameters: CMA activity: unit not given here; settings: for CMA activity: Fig. 2h, individual replicate values
Procedure: NIH3T3 mouse fibroblasts (CRL-1658), CaCo2 cells human colorectal adenocarcinoma (HTB-3), and the N2a neuroblastoma cell line (CCL-131) were obtained from the American Type Culture Collection and were validated by genomic PCR. Primary human fibroblasts (GM01651) were from Coriell Repository. Cells were cultured to full confluence in a 37 °C incubator with 5% CO2 in complete Dulbecco’s modified Eagle’s medium (DMEM, Sigma #D5030) supplemented with 10% heat-inactivated newborn calf serum (HyClone #SH30401.02HI), 1% penicillin/streptomycin/fungizone (Invitrogen, #10072322). All the cell lines were tested for mycoplasma contamination using DNA staining protocol with Hoechst 33258 dye and none of them was found positive. Knock-down of Ncor1 was done using lentiviral mediated shRNA (SHCLNG-NM_011308) from the Sigma Mission library following standard procedures. The efficiency of knock-down was tested by immunoblot. Cell viability was measured using the CellTiter-Blue kit (Promega, #G9241) 24 h after the addition of the different stressors according to the manufacturer’s instructions. All cell lines were validated by genomic PCR.
Cells were transduced with lentivirus carrying the KFERQ-PS-Dendra reporter as before. Cells were photoactivated by exposure to a 3.5 mA (current constant) light emitting diode (LED: Norlux, 405 nm) for 3 min and then plated in glass-bottom 96 well plates. At the desired times, cells were fixed with 4% PFA and imaged using high-content microscopy (Operetta system, Perkin Elmer). Images were quantified using the manufacturer’s software in a minimum of 1,200 cells in 9 independent fields per well. […] This was particularly important in the case of primary human cells where the efficiency of transduction was ~65%. To avoid confounding effects for drug-induced changes in cell volume or adherence to the plate that could bring a fraction of the cells per field outside of focus, we set a threshold to count only […] that have at least 1/10 of the average number of […] detected in the untreated wells for each cell type (3–4 puncta/cell in the case of NIH3T3 and N2a cells and 5 puncta/cell in primary human fibroblasts).

SMILES: CC(=O)Nc1ccc(C2=Nc3ccc(Cl)cc3OC2)cc1 [CA77]
- Fig. 3b level, MEAN ([1]; Time 4 h): 24280.3
- Fig. 3b level, single animals 1-3 ([1]; Time 4 h): 19042 and 28003 and 25796
- Fig. 3a level, MEAN ([1]; Time 8 h): 44.4333
- Fig. 3a level, single animals 1-3 ([1]; Time 8 h): 55.2 and 45.3 and 32.8
- Fig. 3b level, MEAN ([1]; Time 8 h): 5756
- Fig. 3b level, single animals 1-3 ([1]; Time 8 h): 6451 and 6039 and 4778
- Fig. 3a level, MEAN ([1]; Time 24 h): 0
- Fig. 3a level, single animals 1-3 ([1]; Time 24 h): 0
- Fig. 3b level, MEAN ([1]; Time 24 h): 10.0733
- Fig. 3b level, single animals 1-3 ([1]; Time 24 h): 18.9 and 6.07 and 5.25
- B/P, Brian/Plasma ([1]; i.v., Time 0.083 h, individual animals): 71.1336 and 48.9012
- B/P, Brian/Plasma ([1]; i.v., Time 0.25 h, individual animals): 117.877 and 123.138
- B/P, Brian/Plasma ([1]; i.v., Time 0.5 h, individual animals): 191.891 and 134.551
- B/P, Brian/Plasma ([1]; i.v., Time 1 h, individual animals): 123.104 and 140.908
- B/P, Brian/Plasma ([1]; i.v., Time 2 h, individual animals): 102.433 and 239.982 and 206.167
- B/P, Brian/Plasma ([1]; i.v., Time 4 h, individual animals): 232.498
- Kp at 0.083 h ([1]; brain, iv, 1 mg/Kg, i.v., Time 0.083 h, individual animals, read-out: B/P, Brian/Plasma): 71.3
- Kp at 0.083 h ([1]; brain, iv, 1 mg/Kg, i.v., Time 0.083 h, mean, read-out: B/P, Brian/Plasma, Mean): 71.2
- Kp at 0.25 h ([1]; brain, iv, 1 mg/Kg, i.v., Time 0.25 h, individual animals, read-out: B/P, Brian/Plasma): 125
- Kp at 0.25 h ([1]; brain, iv, 1 mg/Kg, i.v., Time 0.25 h, mean, read-out: B/P, Brian/Plasma, Mean): 122
- Kp at 0.5 h ([1]; brain, iv, 1 mg/Kg, i.v., Time 0.5 h, individual animals, read-out: B/P, Brian/Plasma): 128
- Kp at 0.5 h ([1]; brain, iv, 1 mg/Kg, i.v., Time 0.5 h, mean, read-out: B/P, Brian/Plasma, Mean): 151
- Kp at 1 h ([1]; brain, iv, 1 mg/Kg, i.v., Time 1 h, individual animals, read-out: B/P, Brian/Plasma): 178
- Kp at 1 h ([1]; brain, iv, 1 mg/Kg, i.v., Time 1 h, mean, read-out: B/P, Brian/Plasma, Mean): 159
- Kp at 2 h ([1]; brain, iv, 1 mg/Kg, i.v., Time 2 h, mean, read-out: B/P, Brian/Plasma, Mean): 183
- Kp at 4 h ([1]; brain, iv, 1 mg/Kg, i.v., Time 4 h, individual animals, read-out: B/P, Brian/Plasma): 188
- Kp at 4 h ([1]; brain, iv, 1 mg/Kg, i.v., Time 4 h, mean, read-out: B/P, Brian/Plasma, Mean): 210
- Kp at 0.25 h ([1]; brain, po, 30 mg/Kg, P.O., Time 0.25 h, individual animals, read-out: B/P, Brian/Plasma): 64.5
- Kp at 0.25 h ([1]; brain, po, 30 mg/Kg, P.O., Time 0.25 h, mean, read-out: B/P, Brian/Plasma, Mean): 66.9
- Kp at 0.5 h ([1]; brain, po, 30 mg/Kg, P.O., Time 0.5 h, individual animals, read-out: B/P, Brian/Plasma): 122
- Kp at 0.5 h ([1]; brain, po, 30 mg/Kg, P.O., Time 0.5 h, mean, read-out: B/P, Brian/Plasma, Mean): 123
- Kp at 1 h ([1]; brain, po, 30 mg/Kg, P.O., Time 1 h, individual animals, read-out: B/P, Brian/Plasma): 125
- Kp at 1 h ([1]; brain, po, 30 mg/Kg, P.O., Time 1 h, mean, read-out: B/P, Brian/Plasma, Mean): 118
- Kp at 2 h ([1]; brain, po, 30 mg/Kg, P.O., Time 2 h, individual animals, read-out: B/P, Brian/Plasma): 99.4
- Kp at 2 h ([1]; brain, po, 30 mg/Kg, P.O., Time 2 h, mean, read-out: B/P, Brian/Plasma, Mean): 106
- Kp at 4 h ([1]; brain, po, 30 mg/Kg, P.O., Time 4 h, individual animals, read-out: B/P, Brian/Plasma): 117
- Kp at 4 h ([1]; brain, po, 30 mg/Kg, P.O., Time 4 h, mean, read-out: B/P, Brian/Plasma, Mean): 120
- Kp at 8 h ([1]; brain, po, 30 mg/Kg, P.O., Time 8 h, individual animals, read-out: B/P, Brian/Plasma): 117
- Kp at 8 h ([1]; brain, po, 30 mg/Kg, P.O., Time 8 h, mean, read-out: B/P, Brian/Plasma, Mean): 132
- half-life ([1]; brain, IV 1 mg/kg, read-out: Half-life in brain (converted)): 1.8 h
- half-life ([1]; brain, PO 30 mg/kg, read-out: Half-life in brain (converted)): 4.2 h
- half-life ([1]; plasma, IV 1 mg/kg, read-out: Half-life in plasma (converted)): 0.6 h
- half-life ([1]; plasma, PO 30 mg/kg, read-out: Half-life in plasma (converted)): 2.2 h
- activating effect on CMA upon knock-down of NCOR1 ([2]; 20μM for 24 h): completely ablated
- CMA activity ([2]; Ctr cells): 22.4 and 17.9 and 26.0
- CMA activity ([2]; NCOR(-) (NCoR1 KD) cells): 4.3 and 4.0 and 4.8
